Columns and labels:
Assay in all cases: Zone of inhibition screen, 96 well agar array format
Assay type in all cases: cell-based
Design in all cases: scale not given here
Conditions in all cases: zone of inhibition relative to 1 mg/ml stock solution of p-chlorobiphenylvancomycin
E. faecalis (CL 4877) = system: E. faecalis (CL 4877)
Procedure, shortened: (§1)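 Panel screening of every compound against several bacterial strains, among them E. faecium ATCC 49624, was done in a 96-well agar array.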

S. aureus (ATCC 29213) = system: S. aureus (ATCC 29213)
Procedure, shortened: as §1

[1] = system: S. epidermidis (ATCC 12228)
Procedure, shortened: as §1

CC1OC(OC2C(Oc3c4cc5cc3Oc3ccc(cc3Cl)C(O)C3NC(=O)C(NC(=O)C5NC(=O)C(CC(N)=O)NC(=O)C(NC(=O)C(N)CSCCO)C(O)c5ccc(c(Cl)c5)O4)c4ccc(O)c(c4)-c4c(O)cc(O)cc4C(C(=O)O)NC3=O)OC(CO)C(O)C2O)CC(C)(NCc2ccc(-c3ccc(Cl)cc3)cc2)C1O (stereo not drawn) [Compound 48]
2: zone score, E. faecalis CL 4877 (E. faecalis (CL 4877)) | zone score, S. aureus ATCC 29213 (S. aureus (ATCC 29213)) | zone score, S. epidermidis ATCC 12228 [1]

CC1OC(OC2C(Oc3c4cc5cc3Oc3ccc(cc3Cl)C(O)C3NC(=O)C(NC(=O)C5NC(=O)C(CC(N)=O)NC(=O)C(NC(=O)C5CC(O)CN5)C(O)c5ccc(c(Cl)c5)O4)c4ccc(O)c(c4)-c4c(O)cc(O)cc4C(C(=O)O)NC3=O)OC(CO)C(O)C2O)CC(C)(NCc2ccc(-c3ccc(Cl)cc3)cc2)C1O (stereo not drawn) [Compound 54]
2: zone score, E. faecalis CL 4877 (E. faecalis (CL 4877)) | zone score, S. aureus ATCC 29213 (S. aureus (ATCC 29213)) | zone score, S. epidermidis ATCC 12228 [1]

CC1OC(OC2C(Oc3c4cc5cc3Oc3ccc(cc3Cl)C(O)C3NC(=O)C(NC(=O)C5NC(=O)C(CC(N)=O)NC(=O)C(NC(=O)CC(N)C(N)=O)C(O)c5ccc(c(Cl)c5)O4)c4ccc(O)c(c4)-c4c(O)cc(O)cc4C(C(=O)O)NC3=O)OC(CO)C(O)C2O)CC(C)(NCc2ccc(-c3ccc(Cl)cc3)cc2)C1O (stereo not drawn) [Compound 59]
2: zone score, E. faecalis CL 4877 (E. faecalis (CL 4877)) | zone score, S. aureus ATCC 29213 (S. aureus (ATCC 29213)) | zone score, S. epidermidis ATCC 12228 [1]

CC1OC(OC2C(Oc3c4cc5cc3Oc3ccc(cc3Cl)C(O)C3NC(=O)C(NC(=O)C5NC(=O)C(CC(N)=O)NC(=O)C(NC(=O)CCCN)C(O)c5ccc(c(Cl)c5)O4)c4ccc(O)c(c4)-c4c(O)cc(O)cc4C(C(=O)O)NC3=O)OC(CO)C(O)C2O)CC(C)(NCc2ccc(-c3ccc(Cl)cc3)cc2)C1O (stereo not drawn) [Compound 65]
2: zone score, E. faecalis CL 4877 (E. faecalis (CL 4877)) | zone score, S. aureus ATCC 29213 (S. aureus (ATCC 29213)) | zone score, S. epidermidis ATCC 12228 [1]

COc1cc(OC)c(CNC(=O)CCC(N)C(=O)NC2C(=O)NC(CC(N)=O)C(=O)NC3C(=O)NC4C(=O)NC(C(=O)NC(C(=O)O)c5cc(O)cc(O)c5-c5cc4ccc5O)C(O)c4ccc(c(Cl)c4)Oc4cc3cc(c4OC3OC(CO)C(O)C(O)C3OC3CC(C)(NCc4ccc(-c5ccc(Cl)cc5)cc4)C(O)C(C)O3)Oc3ccc(cc3Cl)C2O)c(OC)c1 (stereo not drawn) [Compound 66]
2: zone score, E. faecalis CL 4877 (E. faecalis (CL 4877)) | zone score, S. aureus ATCC 29213 (S. aureus (ATCC 29213)) | zone score, S. epidermidis ATCC 12228 [1]

CC1OC(OC2C(Oc3c4cc5cc3Oc3ccc(cc3Cl)C(O)C(NC(=O)C3CCCN3C(=O)C3CCCN3)C(=O)NC(CC(N)=O)C(=O)NC5C(=O)NC3C(=O)NC(C(=O)NC(C(=O)O)c5cc(O)cc(O)c5-c5cc3ccc5O)C(O)c3ccc(c(Cl)c3)O4)OC(CO)C(O)C2O)CC(C)(NCc2ccc(-c3ccc(Cl)cc3)cc2)C1O (stereo not drawn) [Compound 86]
2: zone score, E. faecalis CL 4877 (E. faecalis (CL 4877)) | zone score, S. aureus ATCC 29213 (S. aureus (ATCC 29213)) | zone score, S. epidermidis ATCC 12228 [1]

CC(=O)OCC(N)C(=O)NC1C(=O)NC(CC(N)=O)C(=O)NC2C(=O)NC3C(=O)NC(C(=O)NC(C(=O)O)c4cc(O)cc(O)c4-c4cc3ccc4O)C(O)c3ccc(c(Cl)c3)Oc3cc2cc(c3OC2OC(CO)C(O)C(O)C2OC2CC(C)(NCc3ccc(-c4ccc(Cl)cc4)cc3)C(O)C(C)O2)Oc2ccc(cc2Cl)C1O (stereo not drawn) [Compound 87]
2: zone score, E. faecalis CL 4877 (E. faecalis (CL 4877)) | zone score, S. aureus ATCC 29213 (S. aureus (ATCC 29213)) | zone score, S. epidermidis ATCC 12228 [1]

CC1OC(OC2C(Oc3c4cc5cc3Oc3ccc(cc3Cl)C(O)C3NC(=O)C(NC(=O)C5NC(=O)C(CC(N)=O)NC(=O)C(NC(=O)CC[S+](C)C)C(O)c5ccc(c(Cl)c5)O4)c4ccc(O)c(c4)-c4c(O)cc(O)cc4C(C(=O)O)NC3=O)OC(CO)C(O)C2O)CC(C)(NCc2ccc(-c3ccc(Cl)cc3)cc2)C1O (stereo not drawn) [Compound 94]
2: zone score, E. faecalis CL 4877 (E. faecalis (CL 4877)) | zone score, S. aureus ATCC 29213 (S. aureus (ATCC 29213)) | zone score, S. epidermidis ATCC 12228 [1]

CC1OC(OC2C(Oc3c4cc5cc3Oc3ccc(cc3Cl)C(O)C3NC(=O)C(NC(=O)C5NC(=O)C(CC(N)=O)NC(=O)C(NC(=O)CCO)C(O)c5ccc(c(Cl)c5)O4)c4ccc(O)c(c4)-c4c(O)cc(O)cc4C(C(=O)O)NC3=O)OC(CO)C(O)C2O)CC(C)(NCc2ccc(-c3ccc(Cl)cc3)cc2)C1O (stereo not drawn) [Compound 106]
2: zone score, E. faecalis CL 4877 (E. faecalis (CL 4877)) | zone score, S. aureus ATCC 29213 (S. aureus (ATCC 29213)) | zone score, S. epidermidis ATCC 12228 [1]

CC(=O)N1CCCC1C(=O)NC1C(=O)NC(CC(N)=O)C(=O)NC2C(=O)NC3C(=O)NC(C(=O)NC(C(=O)O)c4cc(O)cc(O)c4-c4cc3ccc4O)C(O)c3ccc(c(Cl)c3)Oc3cc2cc(c3OC2OC(CO)C(O)C(O)C2OC2CC(C)(NCc3ccc(-c4ccc(Cl)cc4)cc3)C(O)C(C)O2)Oc2ccc(cc2Cl)C1O (stereo not drawn) [Compound 116]
2: zone score, E. faecalis CL 4877 (E. faecalis (CL 4877)) | zone score, S. aureus ATCC 29213 (S. aureus (ATCC 29213)) | zone score, S. epidermidis ATCC 12228 [1]

— patent US6518243B1, “Desleucyl glycopeptide antibiotics and methods of making same” (Trustees of Princeton University, priority 1999, dated 2003)
